We go through eleven compounds from ChEMBL document CHEMBL3872224, “Synthesis and cytotoxicity of novel artemisinin derivatives containing sulfur atoms” (Eur J Med Chem, 2016).

The nature of data set [1]: Cytotoxicity against human SGC7901 cells measured after 72 hrs by MTT assay. Conditions: SGC-7901, 72 h. Format: functional, cell-based. (Formazan colour is commonly taken as a measure of viable cells.)
A short description of data set [2]: Cytotoxicity against human A549 cells measured after 72 hrs by MTT assay. It is filed as functional, cell-based. As to conditions: A549, 72 h.
Data set [3] in a line: Cytotoxicity against human PC3 cells measured after 72 hrs by MTT assay. As to conditions: PC-3, 72 h. It is filed as functional, cell-based.
The nature of data set [4]: Cytotoxicity against human MDA-MB-435S cells measured after 72 hrs by MTT assay. Format: functional, cell-based.
The next data set has as its system A549. Nature of the data set: Selectivity index, ratio of IC50 for human L02 cells to IC50 for human A549 cells. It is filed as functional.
The next data set deals with SGC-7901. The data set is described as follows: Selectivity index, ratio of IC50 for human L02 cells to IC50 for human SGC7901 cells. Format: functional.
Data set [5] is described as follows: Cytotoxicity against human L02 measured after 72 hrs by MTT assay. Format: toxicity. Conditions: L02 cells.

Each structure is given as a SMILES string.

Turning to `CCCCSc1cccc(C(=O)O[C@@H]2O[C@@H]3O[C@]4(C)CC[C@H]5[C@H](C)[C@H](O)C[C@@H]([C@H]2C)[C@@]35OO4)c1`, the 50% inhibitory concentration (IC50) – broadly, the concentration that inhibits the measured activity by half – in data set [1] is 173 µM; in data set [2], 96.1 µM; in data set [3], 464 µM.
On to `COc1ccc(Sc2cccc(C(=O)O[C@@H]3O[C@@H]4O[C@]5(C)CC[C@H]6[C@H](C)[C@H](OC(=O)c7cccc(Sc8ccc(OC)cc8)c7)C[C@@H]([C@H]3C)[C@@]46OO5)c2)cc1`, for which the 50% inhibitory concentration (IC50) in data set [1] came to 6 µM; in data set [2], 4.3 µM; in data set [4] it was 108 µM; in data set [3] it was 30.5 µM. Also, the results for the “Ratio IC50” value in the data set on A549 and with SGC-7901 were 16.1 and 11.5, respectively. Further, in data set [5], half-maximal inhibition (IC50 at 72 h) was put at 69.2 µM.
Regarding `C[C@@H]1[C@H](OC(=O)c2cccc(SCc3ccccc3)c2)C[C@H]2[C@@H](C)[C@H](OC(=O)c3cccc(SCc4ccccc4)c3)O[C@@H]3O[C@]4(C)CC[C@@H]1[C@]32OO4`, the IC50 in data set [2] stood at 223 µM; in data set [4], 289 µM.
As for `COc1ccc(Sc2cccc(C(=O)O[C@@H]3O[C@@H]4O[C@]5(C)CC[C@H]6[C@H](C)[C@H](O)C[C@@H]([C@H]3C)[C@@]46OO5)c2)cc1`, the IC50 in data set [1] was determined as 7.1 µM; in data set [2], 1.6 µM; in data set [4] it was 124 µM; in data set [3] it was 13 µM. Also, the “Ratio IC50” value in the data set on A549 was determined as 50.1; in the data set on SGC-7901 it was 11.3. In addition, the IC50 at 72 h in data set [5] stood at 80.2 µM.
For `C[C@@H]1[C@H](O)C[C@H]2[C@@H](C)[C@H](OC(=O)c3cccc(SC4CCCCC4)c3)O[C@@H]3O[C@]4(C)CC[C@@H]1[C@]32OO4`, the IC50 in data set [1] amounted to 553 µM; in data set [2] it was 33.3 µM; in data set [4], 29.6 µM; in data set [3], 204 µM.
For `CCSc1cccc(C(=O)O[C@@H]2O[C@@H]3O[C@]4(C)CC[C@H]5[C@H](C)[C@H](O)C[C@@H]([C@H]2C)[C@@]35OO4)c1`, the IC50 in data set [2] amounted to 1440 µM; in data set [4] it was 120 µM.
In the case of `CCSc1cccc(C(=O)O[C@@H]2O[C@@H]3O[C@]4(C)CC[C@H]5[C@H](C)[C@H](OC(=O)c6cccc(SCC)c6)C[C@@H]([C@H]2C)[C@@]35OO4)c1`, the IC50 in data set [1] was 74.2 µM; in data set [2] it was 44.4 µM; in data set [4] it was 112 µM; in data set [3], 30 µM.
Consider `C[C@@H]1[C@H](O)C[C@H]2[C@@H](C)C(=O)O[C@@H]3O[C@]4(C)CC[C@@H]1[C@]32OO4`, for which the IC50 in data set [2] stood at 80.4 µM; in data set [4], 21.9 µM. Moreover, in the data set on A549, the “Ratio IC50” value amounted to 1.8. Further, the IC50 at 72 h in data set [5] came to 146 µM.
For the compound `C[C@@H]1[C@H](O)C[C@H]2[C@@H](C)[C@H](OC(=O)c3cccc(SCc4ccccc4)c3)O[C@@H]3O[C@]4(C)CC[C@@H]1[C@]32OO4`, the IC50 in data set [2] turned out to be 95 µM; in data set [4], 223 µM; in data set [3] it was 146 µM.
Turning to `CCCCSc1cccc(C(=O)O[C@@H]2O[C@@H]3O[C@]4(C)CC[C@H]5[C@H](C)[C@H](OC(=O)c6cccc(SCCCC)c6)C[C@@H]([C@H]2C)[C@@]35OO4)c1`, the 50% inhibitory concentration (IC50) in data set [1] worked out at 85 µM; in data set [2], 107 µM; in data set [3] it was 115 µM.
In the case of `O=c1[nH]cc(F)c(=O)[nH]1` [FLUOROURACIL], the IC50 in data set [2] was 6.8 µM; in data set [4], 15.2 µM. The “Ratio IC50” value with A549 stood at 3.8; with SGC-7901, 2.2. The same compound yielded an IC50 at 72 h in data set [5] of 25.9 µM.
